Reference: EP3566700A1, “AMBROXOL FOR DNA DAMAGE REPAIR DISEASE THERAPIES” (Universitat Autònoma de Barcelona, priority 2018, dated 2019)

How the values were obtained:
Fanca-deficient mice [1] = test: Telomere fluorescence analysis on spleen tissue sections by Q-FISH; type: in vivo; conditions: for telomere length: compared with control treatment (water)
Procedure: (§1) Fanca-deficient mice strain was Fanca^tm1Faw and genetic background 129P2/OlaHsd * FVB with exon deletion 4-7 (c.f. Cheng NC et al., "Mice with a targeted disruption of the Fanconi anemia homolog Fanca", Hum Mol Genet. 2000, vol. 9(12), pp. 1805-11). 30 male mice were randomized by age (12 to 16 weeks) and weight (25 grams on average) in three experimental groups (water, NAC and AMB).
(§2) NAC (40mM) (used for comparative purposes) and Ambroxol (1mM) were administered in drinking water (filtered and UV irradiated) ad libitum. To monitor MN on blood cells (erythrocytes and reticulocytes) mice were tail bleeded on weeks 1, 2, 4, 6, 8, 12, 16 and 24. Hematological parameters and blood counts were also evaluated. At the end of the study mice were euthanized and bone marrow, blood and organ samples (spleen, lung, and liver) collected.
Quantitative telomere fluorescence in situ hybridization (Q-FISH) was performed directly on spleen tissue sections as previously described (c.f. Flores I et al., "The longest telomeres: a general signature of adult stem cell compartments", Genes Dev. 2008; vol. 22(5), pp. 654-67). Spleen tissue was hybridized with the PNA telomeric oligonucleotide (CCCTTA)3 labeled with Cy3 (PE Biosystems). After that, digital images were acquired.
Confocal microscopy was performed at room temperature with a laser-scanning microscope (TSC SP5) using a Plan Apo 63Å-1.40 NA oil immersion objective (HCX). Maximal projection of z-stack images generated using advanced fluorescence software (LAS) was analyzed with Definiens XD software package. DAPI images were used to detect telomeric signals inside each nucleus. To study telomere length, average intensity of individual telomeres of around 940 nuclei per mouse was analyzed. To study short telomeres, intensity of around 31,000 individual telomeres was studied per mouse. A total of 7 mice were studied in the control group and 10 mice in NAC or Ambroxol groups.

[2] = tested on: FANCA-deficient lymphoblastoid cell lines; test: FCM assay: cell cycle analysis (cells in G2/M phase); type: cell-based, human; conditions: three FANCA-deficient cell lines; basal around 20% without treatment
FANCD2 ubiquitination = FANCD2 ubiquitination by Western blotting; type: cell-based, human; conditions: two FANCA-deficient lymphoblastoid cell lines
Procedure: To disregard a direct effect on FA/BRCA pathway, FANCD2 ubiquitination was analyzed by Western blotting in two different FANCA-deficient lymphoblastoid cell lines.

Fanca-deficient mice [3] = test: Histopathology study of spleen, liver and lung; type: in vivo
Procedure: as §1, §2
A total of 7 mice were studied in the placebo (water) group and 10 mice in the NAC or Ambroxol treated groups. Samples (spleen, liver and lung) were fixed overnight in 10 % neutral buffered formalin, embedded in paraffin, sectioned in 3 µm thick and dried. Slides were dewaxed and re-hydrated through a series of graded ethanol until water and finally stained with hematoxilin-eosin (H-E). Photographs were taken using an Olympus DP73 digital camera and a Vanox AHBS3 Olympus microscope.

Fanca-deficient mice [4] = test: Chronic treatment of Fanca-deficient mice: survival and general health; type: in vivo
Procedure: as §1, §2

[5] = affected mice/mice studied, H2O 0/7
[6] = affected mice/mice studied, H2O 1/7
[7] = affected mice/mice studied, H2O 2/7

CC(=O)N[C@@H](CS)C(=O)O [NAC, N-acetylcysteine]
telomere length (Fanca-deficient mice [1]; one year of treatment): modest improvement

Nc1c(Br)cc(Br)cc1CN[C@H]1CC[C@H](O)CC1 [Ambroxol, trans-4-(2-amino-3,5-dibromobenzylamino)cyclohexanol]
percentage of cells in G2/M phase in basal conditions [2]: lowered this percentage | FANCD2 ubiquitination (FANCD2 ubiquitination): unable to restore FANCD2 ubiquitination | improvement in telomere's length with respect to NAC (Fanca-deficient mice [1]; one year of treatment): about 5 fold | telomere length (Fanca-deficient mice [1]; one year of treatment): significant increase | length of short telomeres (Fanca-deficient mice [1]; untreated versus Ambroxol treated mice): significantly shorter in untreated mice | proportion of short telomeres respect the total number of telomeres (Fanca-deficient mice [1]; untreated versus treated mice): significantly bigger in untreated mice | Liver, Light/moderate: Steatosis (Fanca-deficient mice [3]; [5]): 2/10 | Lung, Light/moderate: Pleuritis (Fanca-deficient mice [3]; [5]): 1/10 | Liver, Light/moderate: Vascular congestion (Fanca-deficient mice [3]; [6]): 1/10 | Liver, Severe: Multiple myeloid precursor infiltration (Fanca-deficient mice [3]; [6]): 0/10 | Lung, Light/moderate: BALT activation (Fanca-deficient mice [3]; [6]): 1/10 | Lung, Light/moderate: Fibrosis (Fanca-deficient mice [3]; [6]): 0/10 | Lung, Light/moderate: Interstitial pneumonia (Fanca-deficient mice [3]; [6]): 5/10 | Lung, Severe: General vascular congestion (Fanca-deficient mice [3]; [6]): 0/10 | Lung, Severe: Myeloid-shape cellullar embolism (Fanca-deficient mice [3]; [6]): 0/10 | Lung, Severe: Osseous metaplasia (Fanca-deficient mice [3]; [6]): 0/10 | Spleen, Light/moderate: Lymphoid hyperplasia (Fanca-deficient mice [3]; [6]): 3/10 | Liver, Severe: Vesicular steatosis (Fanca-deficient mice [3]; [7]): 0/10 | Spleen, Severe: Spleen hyperplasia (likely linfoma) (Fanca-deficient mice [3]; [7]): 0/10 | Liver, Light/moderate: Chronic hepatitis (perivascular) (Fanca-deficient mice [3]; affected mice/mice studied, H2O 3/7): 7/10 | severe organ defects (Fanca-deficient mice [3]; end of experiment (1 year)): no severe organ defects | survival at the end of the experiment (Fanca-deficient mice [4]; 1 year, Ambroxol 1mM in drinking water ad libitum, 40 % of control mice alive): All mice from the Ambroxol group were alive and healthy | general health condition and survival (Fanca-deficient mice [4]; related to untreated mice): improvement
